According to patent publication US20100247491A1, “Potentiation of Stem Cell Homing and Treatment of Organ Dysfunction or Organ Failure” (priority 2007, published 2010):

Tests used:
[1] = system: MSCs; assay: MSC migration towards SDF-1 in a transwell culture system; type: cell-based, Fisher 344 rats; conditions: pre-incubation of MSCs with the agent, FIG. 7
Source text: AMD 3100 is a non-peptide antagonist of CXCR4 and Diprotin A (Ile-Pro-Ile, Peptides International, Louisville, Ky.) is a commonly used example of a CD26 inhibitor. […] Thus, the invention provides for the use of a CD26 inhibitor for the treatment of renal organ dysfunction (i.e., damage or injury), particularly, in combination with the use of MSCs. For example, it is believed that inhibition of SDF-1 inactivation will increase the homing of administered MSCs to an injured kidney and potentiate renal repair.
Bone marrow-derived MSCs from Fisher 344 rats were used for in vitro experiments. […] In addition, cultured MSCs express functional CD26 and can effectively inactivate SDF-1. […] As a result of the in vitro data, it is reasoned that inhibiting CD26 will augment the SDF-1-CXCR4 mediated chemotactic activity of MSCs in vivo. Thus, the invention relates to pre-treatment or co-administration of MSCs with a CD26 inhibitor to augment the homing and renal protective functions of MSCs administered to a subject to treat a disease involving organ failure or organ dysfunction.

[2] = system: Sca-1+lin-donor cells; conditions: donor cells treated with 5 mM Diprotin A for 15 minutes before transplant; FIG. 4, Christopherson II et al. (2004); cited from earlier work
[3] = system: rats with I/R ARF; assay: I/R ARF rat model, CD26 inhibitor given before MSCs (Example II); type: in vivo; conditions: MSCs following Diprotin A
Source text: All procedures involving animals are approved by the respective Institutional Animal Care and Use Committees of the University of Utah, Veterans Affairs Medical Center (Salt Lake City, Utah), Indiana University (Indianapolis, Ind.), and the University of Hamburg (Hamburg, Germany). Animals are housed at a constant temperature and humidity, with a 12:12-h light-dark cycle, and have unrestricted access to a standard diet and tap water. Adult male Sprague-Dawley (SD) and Fisher 344 (F344) rats weighing 200-300 g are preferably used (Charles River, Wilmington, Mass.).
I/R ARF is induced in isoflurane-anesthetized animals, and rectal temperature is maintained at 37° C. After a midabdominal laparatomy, kidneys are exposed and renal pedicles are clamped with atraumatic vascular clamps for about 40 min. […]
Quantification of cell numbers. CFDA-labeled green fluorescing cells are examined and quantified in kidneys at 2, 24, 36, 48, 60, and/or 72 h after ARF and cell infusions. Nuclei are stained with either Hoechst 33342 or propidium iodide, and nuclei are counted in at least three high-power fields (HPF) per section based on a calibrated confocal micrometer measurement bar. After this, total cell numbers of the studied tissue sections are calculated based on the number of nuclei and surface area of the section.
Renal function may be assessed by serum creatinine and/or blood urea nitrogen levels. […]

c1cc(CN2CCCNCCNCCCNCC2)ccc1CN1CCCNCCNCCCNCC1 [AMD 3100]
MSC migration towards SDF-1 [1]: decreased

H-Ile-Pro-Ile-OH [Diprotin A]
homing of HSCs from the circulation to bone [2]: can increase homing of HSCs | renal function (serum creatinine and/or blood urea nitrogen) ([3]; by at least days 2 and/or 3, relative to MSC only treated animals): significantly improved renal function | migration of MSCs to the kidney ([3]; relative to MSC only treated animals): increased migration of MSCs to the kidney | MSC migration towards SDF-1 [1]: significantly increased
